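These data come from cells grown in 96-well plates and exposed to compound for 48 hours at five concentrations. GI50 = concentration required for 50% inhibition of growth.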 Calls of active or inactive are those of the source. No stated cut-off is given here; in the data, active = GI50 up to about 1.1 µM and inactive = higher.
Legend:
Assay in all cases: NCI-60 cell line screen, 48 h
EKVX = test system: EKVX
HT-29 = test system: HT-29
T47D = test system: T47D
SNB-75 = test system: SNB-75
A549 = test system: A549
OVCAR-8 = test system: OVCAR-8
MDA-N = test system: MDA-N
A498 = test system: A498
SR = test system: SR
SF-295 = test system: SF-295
SK-MEL-5 = test system: SK-MEL-5
MDA-MB-435 = test system: MDA-MB-435
TK-10 = test system: TK-10
SW-620 = test system: SW-620
NCI-H226 = test system: NCI-H226
NCI-H460 = test system: NCI-H460
MCF7 = test system: MCF7
CCRF-CEM = test system: CCRF-CEM
DU-145 = test system: DU-145
LXFL 529 = test system: LXFL 529

Structure (SMILES)	GI50 (EKVX)	GI50 (HT-29)	GI50 (T47D)	GI50 (SNB-75)	GI50 (A549)	GI50 (OVCAR-8)	GI50 (MDA-N)	GI50 (A498)	GI50 (SR)	GI50 (SF-295)	GI50 (SK-MEL-5)	GI50 (MDA-MB-435)	GI50 (TK-10)	GI50 (SW-620)	GI50 (NCI-H226)	GI50 (NCI-H460)	GI50 (MCF7)	GI50 (CCRF-CEM)	GI50 (DU-145)	GI50 (LXFL 529)
O=C(O)c1ccccc1-c1ccccc1C(=O)c1ccccc1	> 100 µM (inactive)	> 100 µM (inactive)	> 100 µM (inactive)	> 100 µM (inactive)	> 100 µM (inactive)	> 100 µM (inactive)	> 100 µM (inactive)	> 100 µM (inactive)	> 100 µM (inactive)	> 100 µM (inactive)	> 100 µM (inactive)	> 100 µM (inactive)	> 100 µM (inactive)	> 100 µM (inactive)	> 100 µM (inactive)	> 100 µM (inactive)	> 100 µM (inactive)	> 100 µM (inactive)	> 100 µM (inactive)	
CN(C)CCSS(=O)(=O)O	> 100 µM (inactive)	> 100 µM (inactive)	> 100 µM (inactive)	< 0.01 µM (active)	> 100 µM (inactive)	> 100 µM (inactive)	> 100 µM (inactive)	> 100 µM (inactive)	> 100 µM (inactive)	13.3 µM (inactive)	> 100 µM (inactive)	> 100 µM (inactive)	> 100 µM (inactive)	> 100 µM (inactive)	> 100 µM (inactive)	16 µM (inactive)	> 100 µM (inactive)	> 100 µM (inactive)	> 100 µM (inactive)	
Cc1nn(-c2ccccc2)c(S)c1C(=O)c1ccccc1	18.6 µM (inactive)	10 µM (inactive)		42.8 µM (inactive)	32.2 µM (inactive)	14.9 µM (inactive)		21 µM (inactive)		35.2 µM (inactive)	28.8 µM (inactive)		31.9 µM (inactive)	32.6 µM (inactive)				20.5 µM (inactive)		18.2 µM (inactive)
CC(C)(C)OC(=O)N[C@H]1CC(O)c2ccccc2N(CC(=O)O)C1=O (some centres undefined)	> 100 µM (inactive)	> 100 µM (inactive)		> 100 µM (inactive)	> 100 µM (inactive)	> 100 µM (inactive)			> 100 µM (inactive)	> 100 µM (inactive)	> 100 µM (inactive)		> 100 µM (inactive)	> 100 µM (inactive)	> 100 µM (inactive)	> 100 µM (inactive)		> 100 µM (inactive)		> 100 µM (inactive)
CC12Oc3ccc4ccccc4c3CC1Cc1c(ccc3ccccc13)O2 (centres undefined)	> 100 µM (inactive)	> 100 µM (inactive)		7.08 µM (inactive)	> 100 µM (inactive)	49.7 µM (inactive)				30 µM (inactive)			46.2 µM (inactive)	> 100 µM (inactive)	23 µM (inactive)	82.4 µM (inactive)				45.4 µM (inactive)
C[C@H](NC1=C(Cl)C(=O)c2c(O)ccc(O)c2C1=O)C(=O)Nc1ccc([N+](=O)[O-])cc1	4.93 µM (inactive)	2.62 µM (inactive)	3.25 µM (inactive)	4.04 µM (inactive)	1.71 µM (inactive)	2.37 µM (inactive)	2.4 µM (inactive)	2.39 µM (inactive)	2.47 µM (inactive)	1.89 µM (inactive)	1.76 µM (inactive)	1.57 µM (inactive)	1.95 µM (inactive)	3.05 µM (inactive)	1.91 µM (inactive)	2.06 µM (inactive)	1.75 µM (inactive)	0.305 µM (active)	1.82 µM (inactive)	
Cc1cc2c(C)n(Cc3ccc(Cl)cc3Cl)nc2c(C(=O)O)c1C	> 100 µM (inactive)	> 100 µM (inactive)		> 100 µM (inactive)	> 100 µM (inactive)	> 100 µM (inactive)				> 100 µM (inactive)			> 100 µM (inactive)	> 100 µM (inactive)	> 100 µM (inactive)	96.4 µM (inactive)		> 100 µM (inactive)		> 100 µM (inactive)
COc1ccccc1/C=C1\Sc2scc(-c3cccc([N+](=O)[O-])c3)[n+]2C1=O	11.4 µM (inactive)	3.27 µM (inactive)	7.23 µM (inactive)	12.8 µM (inactive)	17.1 µM (inactive)	7.19 µM (inactive)	2.87 µM (inactive)	21.3 µM (inactive)	2.19 µM (inactive)	17.5 µM (inactive)	2.53 µM (inactive)	4.99 µM (inactive)	2.83 µM (inactive)	4.32 µM (inactive)	12.4 µM (inactive)	13.2 µM (inactive)	2 µM (inactive)	0.476 µM (active)	13.5 µM (inactive)	
O=C(CC1C(=O)c2ccccc2C1=C1C(=O)c2ccccc2C1=O)c1ccccc1 (centres undefined)	> 100 µM (inactive)	> 100 µM (inactive)		> 100 µM (inactive)	> 100 µM (inactive)	> 100 µM (inactive)		> 100 µM (inactive)		> 100 µM (inactive)	> 100 µM (inactive)		> 100 µM (inactive)	> 100 µM (inactive)	> 100 µM (inactive)	> 100 µM (inactive)		32 µM (inactive)		85.5 µM (inactive)

Reference: ChEMBL document CHEMBL1201862, “PubChem BioAssay data set” (2004)
